For 21 compounds, TGI results are on record in PubChem BioAssay (NCI).

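1) Cells in 96-well plates. 2) Compound, 48 h, 5 concentrations. 3) Linear interpolation between surrounding doses. 4) Unreached endpoint = highest concentration. TGI denotes the concentration required for complete inhibition of growth.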 Where only a bound is given, the exact number is not on record here.

Some test systems named below: OVCAR-3 ovarian; BT-549 breast; HCT-116 colon; SK-MEL-28 melanoma; OVCAR-8 ovarian; U251 CNS; NCI-H23 lung; K-562 leukemia; SR leukemia; CAKI-1 renal.
Assay in all cases: NCI-60 cell line screen, 48 h

As to `COC(=O)/C=C/[C@H]1[C@H](C)N1S(=O)(=O)c1ccc(C)cc1` (stereo partly drawn), the TGI with OVCAR-3 ovarian, with BT-549 breast, in the test with HCT-116 colon, in the test with SK-MEL-28 melanoma, in the test with OVCAR-8 ovarian and in the test on U251 CNS was > 100 µM throughout. For the same compound, the TGI in the test with NCI-H23 lung, in the test on K-562 leukemia, in the test with SR leukemia and with CAKI-1 renal was > 100 µM in each case.

`FC(F)(F)c1ccc(N=NN2CCCC2)cc1`: the TGI with OVCAR-3 ovarian, in the test with BT-549 breast, in the test with HCT-116 colon, in the test with SK-MEL-28 melanoma, with U251 CNS and with NCI-H23 lung was > 100 µM each time. The TGI with K-562 leukemia, in the test with SR leukemia and in the test with CAKI-1 renal was > 100 µM each time.

As for `CCOC(=O)C(C(=O)OCC)C(=S)NC1OC(COC(C)=O)C(OC(C)=O)C(OC(C)=O)C1OC(C)=O` (stereo not drawn), the TGI with OVCAR-3 ovarian, with BT-549 breast, with HCT-116 colon, in the test with SK-MEL-28 melanoma, in the test on OVCAR-8 ovarian and in the test on U251 CNS was > 100 µM in each case. The TGI in the test on NCI-H23 lung, in the test with SR leukemia and in the test on CAKI-1 renal was > 100 µM in each case.

Take `O=C1CSC2(CC(/C=C/c3ccccc3[N+](=O)[O-])=NN2c2cccc(S(=O)(=O)O)c2)N1c1nc2ccccc2s1` (stereo not drawn): the TGI was 33.1 µM in the test on BT-549 breast; > 75 µM in the test with HCT-116 colon; > 75 µM with SK-MEL-28 melanoma; 28.6 µM in the test on OVCAR-8 ovarian; 33.6 µM in the test with U251 CNS; 34.4 µM in the test on NCI-H23 lung. Besides, the results for the TGI with K-562 leukemia, in the test with SR leukemia and in the test with CAKI-1 renal were 63.3 µM, 63.1 µM and > 75 µM, respectively.

For `CCN(CC)CCCNc1c2cc(OC)ccc2nc2cccc([N+](=O)[O-])c12`, the TGI with OVCAR-3 ovarian was determined as 0.176 µM; in the test with BT-549 breast it was 0.49 µM; in the test on HCT-116 colon, 0.175 µM; in the test with SK-MEL-28 melanoma, 0.534 µM; with OVCAR-8 ovarian it was 0.264 µM; in the test with U251 CNS, 0.432 µM. In addition, the TGI in the test with NCI-H23 lung was 0.344 µM; with K-562 leukemia it was 0.104 µM; in the test with SR leukemia, 0.061 µM; in the test on CAKI-1 renal it was 0.673 µM.

Consider `O=C(Nc1ccccn1)c1cc2c(cc1Cl)Sc1nccn1S2(=O)=O`, for which the TGI with OVCAR-3 ovarian, in the test on BT-549 breast, with HCT-116 colon, with SK-MEL-28 melanoma, with OVCAR-8 ovarian and in the test with U251 CNS was > 100 µM each time. Further, the TGI in the test with NCI-H23 lung is 82.6 µM; in the test on K-562 leukemia, > 100 µM; in the test on SR leukemia, > 100 µM; in the test with CAKI-1 renal, > 100 µM.

On to `CN1CCN2CCN(C)CCN(CC1)CC2`, for which the TGI in the test with OVCAR-3 ovarian, with BT-549 breast, in the test on HCT-116 colon, in the test with SK-MEL-28 melanoma, in the test with OVCAR-8 ovarian and in the test with U251 CNS was > 100 µM each time. Further, the TGI with NCI-H23 lung, in the test on K-562 leukemia, with SR leukemia and in the test with CAKI-1 renal was > 100 µM each time.

On to `c1ccc2c[n+](Cc3ccnc4ccccc34)ccc2c1`, for which the TGI in the test on OVCAR-3 ovarian, in the test on BT-549 breast, in the test with HCT-116 colon, in the test with SK-MEL-28 melanoma, with OVCAR-8 ovarian and in the test with U251 CNS was > 100 µM each time. The TGI in the test on NCI-H23 lung, in the test on K-562 leukemia, in the test on SR leukemia and in the test on CAKI-1 renal was > 100 µM in each case.

Regarding `COc1cc(C2C(Cl)C(=O)N2NC(=O)c2ccccc2O)cc(OC)c1OC` (stereo not drawn), the TGI is > 10 µM with OVCAR-3 ovarian; > 10 µM in the test with BT-549 breast; > 10 µM in the test with OVCAR-8 ovarian; > 10 µM in the test on U251 CNS; 9.95 µM in the test with NCI-H23 lung; > 10 µM in the test on K-562 leukemia. For the same compound, the TGI with SR leukemia was > 10 µM.

As to `O=c1[nH]nc(-c2ccccc2)c2[nH]c3c(c12)CCCc1ccccc1-3`, the TGI in the test on OVCAR-3 ovarian is 66.3 µM; in the test on BT-549 breast, 47.4 µM; in the test on HCT-116 colon it was 28.5 µM; in the test on OVCAR-8 ovarian it was 50.7 µM; in the test with U251 CNS, 28 µM; in the test with NCI-H23 lung, > 100 µM. In addition, the results for the TGI in the test on K-562 leukemia, in the test on SR leukemia and in the test on CAKI-1 renal were 94.8 µM, 69.9 µM and > 100 µM, respectively.

Regarding `CN1CCN(C(=S)N(C(=O)c2ccc(Cl)cc2)C2CCCCC2)CC1`, the TGI in the test with OVCAR-3 ovarian, in the test with BT-549 breast, in the test with SK-MEL-28 melanoma, with OVCAR-8 ovarian, in the test with U251 CNS and with NCI-H23 lung was > 100 µM each time. Also, the TGI in the test on K-562 leukemia and with SR leukemia was > 100 µM each time.

For `COc1ccc(/C=C2/C(=O)C(c3ccccc3)N(c3ccccc3)C2=O)cc1OC` (stereo not drawn), the TGI in the test on OVCAR-3 ovarian, in the test on BT-549 breast, in the test with HCT-116 colon, in the test with SK-MEL-28 melanoma, in the test with OVCAR-8 ovarian and with U251 CNS was > 10 µM in each case. Also, the TGI in the test on NCI-H23 lung, with SR leukemia and with CAKI-1 renal was > 10 µM in each case.

Turning to `[B]C(=O)NC(CC(C)C)C(=O)NC1c2ccsc2C(=O)C1O` (stereo not drawn) (tested in a mixture with another compound), the TGI with BT-549 breast, in the test on HCT-116 colon, in the test with SK-MEL-28 melanoma, in the test on OVCAR-8 ovarian, in the test on U251 CNS and with NCI-H23 lung was > 100 µM each time. For the same compound, the TGI in the test with K-562 leukemia and in the test with SR leukemia was > 100 µM throughout.

As for `Nc1nc(=O)n(C2CC(O)C(CO)O2)c2nc(-c3ccc(-c4ccccc4)cc3)cnc12` (stereo not drawn), the TGI is > 100 µM in the test with BT-549 breast; > 100 µM in the test with HCT-116 colon; > 100 µM in the test with OVCAR-8 ovarian; 42.6 µM in the test on U251 CNS; > 100 µM in the test with NCI-H23 lung; > 100 µM with K-562 leukemia. In addition, the TGI with SR leukemia and with CAKI-1 renal was > 100 µM in each case.

Regarding `O=c1oc2ccc([N+](=O)[O-])cc2cc1-c1csc(-c2ccccc2)n1`, the TGI with BT-549 breast, in the test with HCT-116 colon, in the test on SK-MEL-28 melanoma, in the test with OVCAR-8 ovarian, in the test with U251 CNS and in the test on K-562 leukemia was > 100 µM throughout. Besides, the TGI with SR leukemia and with CAKI-1 renal was > 100 µM in each case.

Consider `COc1ccc(-c2cc(-c3ccncc3)nc(N)c2-c2ccc(F)cc2)cc1`, for which the TGI with OVCAR-3 ovarian was > 100 µM; with BT-549 breast it was > 100 µM; with HCT-116 colon, 51.7 µM; with OVCAR-8 ovarian, > 100 µM; with U251 CNS, > 100 µM; with NCI-H23 lung, > 100 µM. In addition, the TGI with K-562 leukemia is > 100 µM; in the test with SR leukemia, 38.7 µM; with CAKI-1 renal it was > 100 µM.

With `CSc1c(C#N)c(=O)n(N)c2n[nH]c(C)c12`, the TGI in the test with BT-549 breast, with HCT-116 colon, with SK-MEL-28 melanoma, in the test on OVCAR-8 ovarian, in the test on U251 CNS and in the test with NCI-H23 lung was > 100 µM in each case. Further, the TGI with K-562 leukemia, with SR leukemia and in the test on CAKI-1 renal was > 100 µM each time.

On to `CCN(CC)C(=O)N1CN(c2ccccc2)C2(CCN(CCCC3(c4ccc(F)cc4)OCCO3)CC2)C1=O`, for which the TGI turned out to be 31.5 µM in the test on OVCAR-3 ovarian; 28.9 µM in the test on BT-549 breast; 23.9 µM in the test on HCT-116 colon; 26.7 µM in the test with SK-MEL-28 melanoma; 44.4 µM in the test with OVCAR-8 ovarian; 30.2 µM in the test on U251 CNS. Also, the values for the TGI in the test on NCI-H23 lung, in the test with SR leukemia and in the test on CAKI-1 renal were 36.6 µM, 47.5 µM and > 100 µM, respectively.

Regarding `COc1ccccc1N1C(=O)/C(=C\c2ccccc2)SC1c1cc(OC)c(OC)c(OC)c1` (stereo not drawn), the TGI was > 100 µM in the test with BT-549 breast; > 100 µM in the test with HCT-116 colon; > 100 µM in the test on SK-MEL-28 melanoma; > 100 µM in the test with OVCAR-8 ovarian; 74.2 µM in the test on U251 CNS; > 100 µM in the test on NCI-H23 lung. The TGI with K-562 leukemia, in the test on SR leukemia and in the test with CAKI-1 renal was > 100 µM throughout.

As for `O=C(CCCN1CCC(Nc2ccc(F)cc2)(c2nnnn2C2CCCCC2)CC1)c1ccc(F)cc1`, the TGI in the test on OVCAR-3 ovarian is 31.8 µM; in the test with BT-549 breast it was 33.1 µM; in the test on HCT-116 colon, 26.1 µM; in the test with SK-MEL-28 melanoma it was 30.5 µM; in the test on OVCAR-8 ovarian, 63.4 µM; in the test on U251 CNS it was 29.2 µM. In addition, the TGI with NCI-H23 lung was 29 µM; in the test on K-562 leukemia it was > 100 µM; in the test on SR leukemia, > 100 µM.

On to `COC(=O)Cc1c(-c2c(CC(=O)OC)c3ccccc3n2C2OC(COC3OC(COC(C)=O)C(OC(C)=O)C(OC(C)=O)C3OC(C)=O)C(O)C(O)C2O)[nH]c2ccccc12` (stereo not drawn), for which the TGI in the test on OVCAR-3 ovarian, with BT-549 breast, in the test with HCT-116 colon, in the test on SK-MEL-28 melanoma, in the test on U251 CNS and in the test on NCI-H23 lung was > 100 µM in each case. Moreover, the TGI in the test with K-562 leukemia, in the test with SR leukemia and in the test with CAKI-1 renal was > 100 µM each time.
